Measured values from patent publication US20210045385A1, “PYRIDAZINONE-SUBSTITUTED KETOXIMES AS HERBICIDES” (FMC Corporation, priority 2018, published 2021).

What was measured:
Format in all cases: in vivo
[1] = test system: sedge, umbrella (small-flower umbrella sedge, Cyperus difformis); assay: Test B flooded paddy test, visual plant response rating; settings: 250 g ai/ha, Flood, applied to paddy water, 2-leaf stage, evaluated after 13 to 15 days
How it was run: (§1)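 Rice, umbrella sedge, ducksalad and barnyardgrass grown to 2-leaf stage; pots flooded 3 cm above soil and compound applied directly to paddy water, depth maintained.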

[2] = test system: barnyardgrass (Echinochloa crus-galli); assay: as above; settings: 250 g ai/ha, Flood, applied to paddy water, 2-leaf stage, evaluated after 13 to 15 days
How it was run: as §1

[3] = test system: ducksalad (Heteranhera limosa); assay: as above; settings: 250 g ai/ha, Flood, applied to paddy water, 2-leaf stage, evaluated after 13 to 15 days
How it was run: as §1

rice (Oryza sativa) = assay: as above; settings: 250 g ai/ha, Flood, applied to paddy water, 2-leaf stage, evaluated after 13 to 15 days
How it was run: as §1

kochia (Kochia scoparia) [4] = assay: Test A postemergence, visual plant response rating; settings: for Kochia plant response rating (0 to 100 scale): 500 g ai/ha, postemergence, 0 is no effect, 100 is complete control; for Kochia plant response rating: Postemergence, 125 g ai/ha, 0 to 100 scale (0 no effect, 100 complete control)
Source text: (§2) Seeds of plant species selected from barnyardgrass (Echinochloa crus-galli), kochia (Kochia scoparia), ragweed (common ragweed, Ambrosia elatior), Italian ryegrass (Lolium multiflorum), foxtail, giant (giant foxtail, Setaria faberii), foxtail, green (green foxtail, Setaria viridis), and pigweed (Amaranthus retroflexus) were planted into a blend of loam soil and sand and treated preemergence with a directed soil spray using test chemicals formulated in a non-phytotoxic solvent mixture which included a surfactant.
(§3) At the same time, plants selected from these weed species and also wheat (Triticum aestivum), corn (Zea mays), blackgrass (Alopecurus myosuroides), and galium (catchweed bedstraw, Galium aparine) were planted in pots containing the same blend of loam soil and sand and treated with postemergence applications of test chemicals formulated in the same manner. Plants ranged in height from 2 to 10 cm and were in the one- to two-leaf stage for the postemergence treatment. Treated plants and untreated controls were maintained in a greenhouse for approximately 10 days, after which time all treated plants were compared to untreated controls and visually evaluated for injury. Plant response ratings, summarized in Table A, are based on a 0 to 100 scale where 0 is no effect and 100 is complete control. A dash (-) response means no test result.

[5] = test system: barnyardgrass (Echinochloa crus-galli); assay: Test A postemergence, visual plant response rating; settings: for Barnyardgrass plant response rating (0 to 100 scale): 500 g ai/ha, postemergence, 0 is no effect, 100 is complete control; for Barnyardgrass plant response rating: Postemergence, 125 g ai/ha, 0 to 100 scale (0 no effect, 100 complete control)
Source text: as §2, §3

[6] = test system: foxtail, giant (giant foxtail, Setaria faberii); assay: Test A postemergence, visual plant response rating; settings: for Foxtail, Giant plant response rating (0 to 100 scale): 500 g ai/ha, postemergence, 0 is no effect, 100 is complete control; for Foxtail, Giant plant response rating: Postemergence, 125 g ai/ha, 0 to 100 scale (0 no effect, 100 complete control)
Source text: as §2, §3

[7] = test system: Italian ryegrass (Lolium multiflorum); assay: Test A postemergence, visual plant response rating; settings: for Ryegrass, Italian plant response rating: 125 g ai/ha, 0 to 100 scale (0 no effect, 100 complete control)
Source text: as §2, §3

[8] = test system: wheat (Triticum aestivum); assay: Test A postemergence, visual plant response rating; settings: for Wheat plant response rating: 0 to 100 scale (0 no effect, 100 complete control)
Source text: as §2, §3

[9] = test system: galium (catchweed bedstraw, Galium aparine); assay: Test A postemergence, visual plant response rating; settings: for Galium plant response rating (0 to 100 scale): 500 g ai/ha, postemergence, 0 is no effect, 100 is complete control; for Galium plant response rating: Postemergence, 125 g ai/ha, 0 to 100 scale (0 no effect, 100 complete control)
Source text: as §2, §3

[10] = test system: ragweed (common ragweed, Ambrosia elatior); assay: Test A postemergence, visual plant response rating; settings: for Ragweed plant response rating (0 to 100 scale): 500 g ai/ha, postemergence, 0 is no effect, 100 is complete control; for Ragweed plant response rating: Postemergence, 125 g ai/ha, 0 to 100 scale (0 no effect, 100 complete control)
Source text: as §2, §3

[11] = test system: blackgrass (Alopecurus myosuroides); assay: Test A postemergence, visual plant response rating; settings: for Blackgrass plant response rating (0 to 100 scale): 500 g ai/ha, postemergence, 0 is no effect, 100 is complete control; for Blackgrass plant response rating: Postemergence, 125 g ai/ha, 0 to 100 scale (0 no effect, 100 complete control)
Source text: as §2, §3

corn (Zea mays) = assay: Test A postemergence, visual plant response rating; settings: for Corn plant response rating (0 to 100 scale): 500 g ai/ha, postemergence, 0 is no effect, 100 is complete control; for Corn plant response rating: Postemergence, 125 g ai/ha, 0 to 100 scale (0 no effect, 100 complete control)
Source text: as §2, §3

[12] = test system: pigweed (Amaranthus retroflexus); assay: Test A postemergence, visual plant response rating; settings: for Pigweed plant response rating (0 to 100 scale): 500 g ai/ha, postemergence, 0 is no effect, 100 is complete control; for Pigweed plant response rating: Postemergence, 125 g ai/ha, 0 to 100 scale (0 no effect, 100 complete control)
Source text: as §2, §3

kochia (Kochia scoparia) [13] = assay: Test A preemergence, visual plant response rating; settings: for Kochia plant response rating: 125 g ai/ha, preemergence, 0 to 100 scale, 0 no effect, 100 complete control; for Kochia plant response rating (0 to 100 scale): 500 g ai/ha Preemergence, approx. 10 days
How it was run: (§4)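 Greenhouse pot test in loam–sand soil mix: compound in a surfactant-containing non-phytotoxic solvent applied preemergence (directed soil spray) or postemergence (one- to two-leaf plants, 2–10 cm). Injury scored visually after ~10 days, 0–100.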

[14] = test system: barnyardgrass (Echinochloa crus-galli); assay: Test A preemergence, visual plant response rating; settings: for Barnyardgrass plant response rating: 125 g ai/ha, preemergence, 0 to 100 scale, 0 no effect, 100 complete control; for Barnyardgrass plant response rating (0 to 100 scale): 500 g ai/ha Preemergence, approx. 10 days
How it was run: as §4

[15] = test system: foxtail, giant (giant foxtail, Setaria faberii); assay: Test A preemergence, visual plant response rating; settings: for Foxtail, Giant plant response rating: 125 g ai/ha, preemergence, 0 to 100 scale, 0 no effect, 100 complete control; for Foxtail, Giant plant response rating (0 to 100 scale): 500 g ai/ha Preemergence, approx. 10 days
How it was run: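 Ratings 0–100 (100 = complete control), visual, vs untreated controls at ~10 days. Application pre- or postemergence; solvent mixture with surfactant; loam/sand medium.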

[16] = test system: Italian ryegrass (Lolium multiflorum); assay: Test A preemergence, visual plant response rating; settings: for Ryegrass, Italian plant response rating: 125 g ai/ha, preemergence, 0 to 100 scale, 0 no effect, 100 complete control; for Ryegrass, Italian plant response rating (0 to 100 scale): 500 g ai/ha Preemergence, approx. 10 days
How it was run: as §4

[17] = test system: ragweed (common ragweed, Ambrosia elatior); assay: Test A preemergence, visual plant response rating; settings: for Ragweed plant response rating: 125 g ai/ha, preemergence, 0 to 100 scale, 0 no effect, 100 complete control; for Ragweed plant response rating (0 to 100 scale): 500 g ai/ha Preemergence, approx. 10 days
How it was run: as §4

[18] = test system: pigweed (Amaranthus retroflexus); assay: Test A preemergence, visual plant response rating; settings: for Pigweed plant response rating: 125 g ai/ha, preemergence, 0 to 100 scale, 0 no effect, 100 complete control; for Pigweed plant response rating (0 to 100 scale): 500 g ai/ha Preemergence, approx. 10 days
How it was run: as §4

[19] = 500 g ai/ha, postemergence, 0 is no effect, 100 is complete control

Structure (SMILES)	Plant response rating, Sedge, Umbrella (0 to 100 scale, 0 is no effect, 100 is complete control) [1]	Plant response rating, Barnyardgrass (0 to 100 scale, 0 is no effect, 100 is complete control) [2]	Plant response rating, Ducksalad (0 to 100 scale, 0 is no effect, 100 is complete control) [3]	Plant response rating, Rice (0 to 100 scale, 0 is no effect, 100 is complete control) (rice (Oryza sativa))	Kochia plant response rating (0 to 100 scale) (kochia (Kochia scoparia) [4])	Kochia plant response rating (kochia (Kochia scoparia) [4])	Barnyardgrass plant response rating (0 to 100 scale) [5]	Barnyardgrass plant response rating [5]	Foxtail, Giant plant response rating (0 to 100 scale) [6]	Foxtail, Giant plant response rating [6]	Ryegrass, Italian plant response rating (0 to 100 scale) [7, 19]	Galium plant response rating (0 to 100 scale) [9]	Galium plant response rating [9]	Ragweed plant response rating (0 to 100 scale) [10]	Ragweed plant response rating [10]	Blackgrass plant response rating (0 to 100 scale) [11]	Blackgrass plant response rating [11]	Corn plant response rating (0 to 100 scale) (corn (Zea mays))	Corn plant response rating (corn (Zea mays))	Pigweed plant response rating (0 to 100 scale) [12]	also measured
CON=C(c1ccc(C)s1)c1c(O)c(C)nn(C)c1=O (mixture of isomers) [Compound 144]	0	0	0	0	0	0	0	0	0	0	0	30	0	30	0	0	0	0	0	10	Ryegrass, Italian plant response rating (0 to 100 scale) ([7]; Postemergence, rate not given, approx. 10 days): 0; Wheat plant response rating ([8]; Postemergence, 500 g ai/ha): 0; Wheat plant response rating (0 to 100 scale) ([8]; Postemergence, approx. 10 days): 0; Pigweed plant response rating [12]: 0; Kochia plant response rating (kochia (Kochia scoparia) [13]): 0; Kochia plant response rating (0 to 100 scale) (kochia (Kochia scoparia) [13]): 0; Barnyardgrass plant response rating [14]: 0; Barnyardgrass plant response rating (0 to 100 scale) [14]: 0; Foxtail, Giant plant response rating [15]: 0; Foxtail, Giant plant response rating (0 to 100 scale) [15]: 0; Ryegrass, Italian plant response rating [16]: 0; Ryegrass, Italian plant response rating (0 to 100 scale) [16]: 0; Ragweed plant response rating [17]: 0; Ragweed plant response rating (0 to 100 scale) [17]: 0; Pigweed plant response rating [18]: 0; Pigweed plant response rating (0 to 100 scale) [18]: 0
CON=C(c1c(O)c(C)nn(C)c1=O)c1csc2ccccc12 (single isomer, unassigned) [Compound 45]	0	0	0	0	0	0	0	0	0	0	20	70	50	70	30	20	0	0	0	10	Ryegrass, Italian plant response rating ([7]; Postemergence): 0; Wheat plant response rating (0 to 100 scale) [8, 19]: 0; Wheat plant response rating ([8]; Postemergence, 125 g ai/ha): 0; Pigweed plant response rating [12]: 0; Kochia plant response rating (kochia (Kochia scoparia) [13]): 0; Kochia plant response rating (0 to 100 scale) (kochia (Kochia scoparia) [13]): 50; Barnyardgrass plant response rating [14]: 0; Barnyardgrass plant response rating (0 to 100 scale) [14]: 0; Foxtail, Giant plant response rating [15]: 0; Foxtail, Giant plant response rating (0 to 100 scale) [15]: 0; Ryegrass, Italian plant response rating [16]: 0; Ryegrass, Italian plant response rating (0 to 100 scale) [16]: 10; Ragweed plant response rating [17]: 10; Ragweed plant response rating (0 to 100 scale) [17]: 40; Pigweed plant response rating [18]: 0; Pigweed plant response rating (0 to 100 scale) [18]: 0
CON=C(c1c(O)c(C)nn(C)c1=O)c1csc2ccccc12 (single isomer, unassigned) [Compound 46]	0	0	0	0	0	0	0	0	0	0	10	60	30	70	40	0	0	0	0	20	Ryegrass, Italian plant response rating ([7]; Postemergence): 10; Wheat plant response rating (0 to 100 scale) [8, 19]: 0; Wheat plant response rating ([8]; Postemergence, 125 g ai/ha): 0; Pigweed plant response rating [12]: 10; Kochia plant response rating (kochia (Kochia scoparia) [13]): 0; Kochia plant response rating (0 to 100 scale) (kochia (Kochia scoparia) [13]): 30; Barnyardgrass plant response rating [14]: 0; Barnyardgrass plant response rating (0 to 100 scale) [14]: 0; Foxtail, Giant plant response rating [15]: 0; Foxtail, Giant plant response rating (0 to 100 scale) [15]: 0; Ryegrass, Italian plant response rating [16]: 0; Ryegrass, Italian plant response rating (0 to 100 scale) [16]: 0; Ragweed plant response rating [17]: 20; Ragweed plant response rating (0 to 100 scale) [17]: 50; Pigweed plant response rating [18]: 0; Pigweed plant response rating (0 to 100 scale) [18]: 10
CON=C(c1c(O)c(C)nn(C)c1=O)c1cccc2ccsc12 (single isomer, unassigned) [Compound 47]	0	0	0	0	30	10	20	30	70	30	70	100	70	90	80	30	20	20	0	90	Ryegrass, Italian plant response rating ([7]; Postemergence): 0; Wheat plant response rating (0 to 100 scale) [8, 19]: 0; Wheat plant response rating ([8]; Postemergence, 125 g ai/ha): 0; Pigweed plant response rating [12]: 60; Kochia plant response rating (kochia (Kochia scoparia) [13]): 0; Kochia plant response rating (0 to 100 scale) (kochia (Kochia scoparia) [13]): 90; Barnyardgrass plant response rating [14]: 0; Barnyardgrass plant response rating (0 to 100 scale) [14]: 50; Foxtail, Giant plant response rating [15]: 20; Foxtail, Giant plant response rating (0 to 100 scale) [15]: 90; Ryegrass, Italian plant response rating [16]: 10; Ryegrass, Italian plant response rating (0 to 100 scale) [16]: 70; Ragweed plant response rating [17]: 100; Ragweed plant response rating (0 to 100 scale) [17]: 100; Pigweed plant response rating [18]: 20; Pigweed plant response rating (0 to 100 scale) [18]: 80
